In patent US8618095B2 (Rigel Pharmaceuticals, Inc., priority 2010, dated 2013):

System: Human mast cells (CHMC)
Test: LD Tryptase release assay in CHMC (mast cell activation induced by FcγR cross-linking)
Type: cell-based
Details: Homo sapiens, Mast cell, anti-IgG stimulation, activity of tryptase released upon degranulation
Description: Compounds were assayed for inhibition of mast cell activation induced by FcγR cross-linking by measuring the activity of tryptase released upon degranulation as follows:
Human mast cells were cultured and differentiated from […] progenitor cell as described in U.S. Patent Publication No. 2005-234049, incorporated herein by reference. For example, 65 μL of various concentrations of the compound to be assayed were prepared in MT (137 mM NaCl, 2.7 mM KCl, 1.8 mM CaCl2, 1.0 mM MgCl2, 5.6 mM Glucose, 20 mM Hepes (pH 7.4), 0.1% Bovine Serum Albumin, (Sigma A4503)) containing 2% MeOH and 1% DMSO, or control buffer were added to duplicate 96-well V-bottom plates. Pelleted and re-suspended (in warm MT) CHMC cells (65 μL) were added to each 96-well plate, mixed and incubated for 1 hour at 37° C. 25 μl of 6× anti-IgG Rabbit anti-human IgG, Affinity purified (Bethyl Laboratories Cat No. A80-105A3) final concentration 1 μg/mL, was added to the test wells. MT (25 μL) was added to control wells. After a 60-minute incubation at 37° C., cells and cell debris were pelleted by centrifugation at 1000 rpm for 10 min and tryptase and leukotriene C4 levels were measured.
To measure tryptase levels, 25 μL of supernatant from each well was transferred to a fresh 96-well black bottom plate, to which 100 μL of fresh tryptase substrate solution [(Z-Ala-Lys-Arg-AMC2TFA; Enzyme Systems Products, #AMC-246)] 1:2000 in tryptase assay buffer [0.1 M Hepes (pH 7.5), 10% w/v Glycerol, 10 μM Heparin (Sigma H-4898) 0.01% NaN3] was added. After 30 minute incubation at room temperature, the optical density of the plates is measured at 355 nm/460 nm on a spectrophotometric plate reader. Table 1 provides the IC50 values.
Compounds of the disclosure were assayed for their ability to inhibit mast cell activation induced by FcγR cross-linking by measuring the activity of tryptase released upon degranulation. The IC50 values for the LD Tryptase assay are presented in Table 2, in which “0” is >100 μM; “A” is 1-100 μM; “B” is 0.5-1 μM; “C” is 0.1-0.5 μM; and “D” is less than 0.1 μM: […]

Row | Structure (SMILES) | IC50 [nM]
1 | CC1(C)Oc2ccc(Nc3nc(Nc4ccc(N5CCOC5=O)cc4)ncc3F)nc2NC1=O [Compound 91, N4-(2,2-dimethyl-3,4-dihydro-3-oxo-2H-pyrido[3,2-b][1,4]oxazin-6-yl)-5-fluoro-N2-[4-(2-oxooxazolidin-3-yl)phenyl]-2,4-pyrimidinediamine] | < 100
2 | COC1CN(c2ccc(Nc3ncc(F)c(Nc4ccc5c(n4)NC(=O)C(C)(C)O5)n3)cn2)C1 [Compound 69, N4-(2,2-dimethyl-3,4-dihydro-3-oxo-2H-pyrido[3,2-b][1,4]oxazin-6-yl)-5-fluoro-N2-[6-(3-methoxyazetidin-1-yl)pyridin-3-yl]-2,4-pyrimidinediamine] | > 100000
3 | O=C1COc2ccc(Nc3nc(Nc4ccc(N5CCCCC5)cc4)ncc3F)nc2N1 [Compound 83, N4-(3,4-dihydro-3-oxo-2H-pyrido[3,2-b][1,4]oxazin-6-yl)-5-fluoro-N2-[4-(piperidin-1-yl)phenyl]-2,4-pyrimidinediamine] | 100 to 500
4 | CC1(C)Oc2ccc(Nc3nc(Nc4ccc(N5CCO[C@@H](CO)C5)cc4)ncc3F)nc2NC1=O [Compound 128, N4-(2,2-dimethyl-3,4-dihydro-3-oxo-2H-pyrido[3,2-b][1,4]oxazin-6-yl)-5-fluoro-N2-[4-((2-hydroxymethyl)morpholino)phenyl]-2,4-pyrimidinediamine] | < 100
5 | O=C1COc2ccc(Nc3nc(Nc4ccc(N5CCOCC5)c(F)c4)ncc3F)nc2N1 [Compound 34, N4-(3,4-dihydro-3-oxo-2H-pyrido[3,2-b][1,4]oxazin-6-yl)-5-fluoro-N2-[3-fluoro-4-morpholinophenyl]-2,4-pyrimidinediamine] | < 100
6 | C[C@@H]1CN(c2ccc(Nc3ncc(F)c(Nc4ccc5c(n4)NC(=O)C(C)(C)O5)n3)cn2)C[C@H](C)O1 [Compound 96, rac-Cis-N4-(2,2-dimethyl-3,4-dihydro-3-oxo-2H-pyrido[3,2-b][1,4]oxazin-6-yl)-N2-[6-(2,6-dimethylmorpholino)pyridin-3-yl]-5-fluoro-2,4-pyrimidinediamine] | 100 to 500
7 | CN(C)C[C@@H]1CN(c2ccc(Nc3ncc(F)c(Nc4ccc5c(n4)NC(=O)C(C)(C)O5)n3)cc2)CCO1 [Compound 122] | 100 to 500
8 | [2H]C1([2H])OC([2H])([2H])C([2H])([2H])N(c2ccc(Nc3ncc(F)c(Nc4ccc5c(n4)NC(=O)C(C)(C)O5)n3)cn2)C1([2H])[2H] [Compound 107, N4-(2,2-dimethyl-3,4-dihydro-3-oxo-2H-pyrido[3,2-b][1,4]oxazin-6-yl)-5-fluoro-N2-[6-(2,2,3,3,5,5,6,6-d8-morpholino)pyridin-3-yl]-2,4-pyrimidinediamine] | < 100
9 | CCOCC1CN(c2ccc(Nc3ncc(F)c(Nc4ccc5c(n4)NC(=O)CO5)n3)cc2)CCO1 (stereo in doubt) [Compound 41, N4-(3,4-dihydro-3-oxo-2H-pyrido[3,2-b][1,4]oxazin-6-yl)-5-fluoro-N2-[4-(((2S)-2-ethoxymethyl)morpholino)phenyl]-2,4-pyrimidinediamine] | 100 to 500
10 | CC1(C)Oc2ccc(Nc3nc(Nc4ccc(N5CCC6(CCCO6)CC5)cc4)ncc3F)nc2NC1=O [Compound 156, N4-(2,2-dimethyl-3,4-dihydro-3-oxo-2H-pyrido[3,2-b][1,4]oxazin-6-yl)-5-fluoro-N2-[4-(1-oxa-8-azaspiro[4.5]decan-8-yl)phenyl]-2,4-pyrimidinediamine] | 100 to 500
11 | C[C@@H]1COCCN1c1ccc(Nc2ncc(F)c(Nc3ccc4c(n3)NC(=O)CO4)n2)cn1 [Compound 51, N4-(3,4-dihydro-3-oxo-2H-pyrido[3,2-b][1,4]oxazin-6-yl)-5-fluoro-N2-[6-((3R)-3-methylmorpholino)pyridin-3-yl]-2,4-pyrimidinediamine] | < 100

Next, values leading:

Row | IC50 [nM] | Structure (SMILES)
12 | 100 to 500 | O=C1COc2ccc(Nc3nc(Nc4ccc(N5CC[C@H](O)C5)nc4)ncc3F)nc2N1 [Compound 63, N4-(3,4-dihydro-3-oxo-2H-pyrido[3,2-b][1,4]oxazin-6-yl)-5-fluoro-N2-[6-((3S)-3-hydroxypyrrolidin-1-yl)pyridin-3-yl]-2,4-pyrimidinediamine]
13 | 100 to 500 | CC1(C)Oc2ccc(Nc3nc(Nc4ccc(N5CCOCC5CO)c(F)c4)ncc3F)nc2NC1=O (centres unmarked) [Compound 89, N4-(2,2-dimethyl-3,4-dihydro-3-oxo-2H-pyrido[3,2-b][1,4]oxazin-6-yl)-5-fluoro-N2-[3-fluoro-4-(3-(hydroxymethyl)morpholino)phenyl]-2,4-pyrimidinediamine]
14 | < 100 | CC1(C)Oc2ccc(Nc3nc(Nc4ccc(N5C[C@@H]6C[C@H]5CO6)nc4)ncc3F)nc2NC1=O [Compound 92, N4-(2,2-dimethyl-3,4-dihydro-3-oxo-2H-pyrido[3,2-b][1,4]oxazin-6-yl)-5-fluoro-N2-[6-((1S,4S)-5-oxa-2-aza-bicyclo[2.2.1]heptan-2-yl)pyridin-3-yl]-2,4-pyrimidinediamine]
15 | 100 to 500 | C[C@@H]1CN(c2ccc(Nc3ncc(F)c(Nc4ccc5c(n4)NC(=O)C(C)(C)O5)n3)cn2)CCO1 [Compound 7, N4-(2,2-dimethyl-3,4-dihydro-3-oxo-2H-pyrido[3,2-b][1,4]oxazin-6-yl)-5-fluoro-N2-1-2,4-pyrimidinediamine]
16 | 100 to 500 | CCN(CC)C1CCN(c2ccc(Nc3ncc(F)c(Nc4ccc5c(n4)NC(=O)C(C)(C)O5)n3)cc2)CC1 [Compound 88, N4-(2,2-dimethyl-3,4-dihydro-3-oxo-2H-pyrido[3,2-b][1,4]oxazin-6-yl)-5-fluoro-N2-[4-(4-(diethylamino)piperidin-1-yl)phenyl]-2,4-pyrimidinediamine]
17 | < 100 | O=C1COc2ccc(Nc3nc(Nc4ccc(C5CCOCC5)cc4)ncc3F)nc2N1 [Compound 46, N4-(3,4-dihydro-3-oxo-2H-pyrido[3,2-b][1,4]oxazin-6-yl)-5-fluoro-N2-[4-tetrahydropyranophenyl]-2,4-pyrimidinediamine]
18 | 1000 to 100000 | CC1(C)Oc2ccc(Nc3nc(Nc4cc(F)c(N5CCOCC5)c(F)c4)ncc3F)nc2NC1=O [Compound 31, N4-(2,2-dimethyl-3,4-dihydro-3-oxo-2H-pyrido[3,2-b][1,4]oxazin-6-yl)-5-fluoro-N2-[3,5-difluoro-4-morpholinophenyl]-2,4-pyrimidinediamine]
19 | 100 to 500 | COC1CCN(c2ccc(Nc3ncc(F)c(Nc4ccc5c(n4)NC(=O)C(C)(C)O5)n3)cn2)C1 (stereo in doubt) [Compound 56, N4-(2,2-dimethyl-3,4-dihydro-3-oxo-2H-pyrido[3,2-b][1,4]oxazin-6-yl)-5-fluoro-N2-[6-((3R)-3-methoxypyrrolidin-1-yl)pyridin-3-yl]-2,4-pyrimidinediamine]
20 | < 100 | Cc1cc(Nc2ncc(F)c(Nc3ccc4c(n3)NC(=O)CO4)n2)cnc1N1CCOC(C)(C)C1 [Compound 12, N4-(3,4-dihydro-3-oxo-2H-pyrido[3,2-b][1,4]oxazin-6-yl)-5-fluoro-N2-[5-methyl-6-(2,2-dimethylmorpholino)pyridin-3-yl]-2,4-pyrimidinediamine]
21 | < 100 | C[C@H]1CN(c2ccc(Nc3ncc(F)c(Nc4ccc5c(n4)NC(=O)CO5)n3)cc2)CCO1 [Compound 80]
22 | < 100 | Cc1cc(Nc2ncc(F)c(Nc3ccc4c(n3)NC(=O)CO4)n2)cnc1N1CCOCC1 [Compound 11, N4-(3,4-dihydro-3-oxo-2H-pyrido[3,2-b][1,4]oxazin-6-yl)-5-fluoro-N2-[5-methyl-6-morpholinopyridin-3-yl]-2,4-pyrimidinediamine]
23 | < 100 | CC1(C)Oc2ccc(Nc3nc(Nc4ccc(N5CCC(O)C5)nc4)ncc3F)nc2NC1=O (stereo in doubt) [Compound 55, N4-(2,2-dimethyl-3,4-dihydro-3-oxo-2H-pyrido[3,2-b][1,4]oxazin-6-yl)-5-fluoro-N2-[6-((3R)-3-hydroxypyrrolidin-1-yl)pyridin-3-yl]-2,4-pyrimidinediamine]
24 | 100 to 500 | CN(C[C@H]1CCCO1)c1ccc(Nc2ncc(F)c(Nc3ccc4c(n3)NC(=O)C(C)(C)O4)n2)cn1 [Compound 111]
25 | 100 to 500 | C[C@H]1CN(c2ccc(Nc3ncc(F)c(Nc4ccc5c(n4)NC(=O)CO5)n3)cn2)CCO1 [Compound 93, N4-(3,4-dihydro-3-oxo-2H-pyrido[3,2-b][1,4]oxazin-6-yl)-5-fluoro-N2-[6-((2S)-2-methylmorpholino)pyridin-3-yl]-2,4-pyrimidinediamine]

Same assay, conditions: Mast cell, anti-IgG stimulation, activity of tryptase released upon degranulation

Row | Structure (SMILES) | IC50 [nM]
26 | CC1(C)Oc2ccc(Nc3nc(Nc4ccc(N5CCOCC5)cc4)ncc3F)nc2N(COP(=O)(O)O)C1=O [Compound 2, N4-(2,2-dimethyl-3,4-dihydro-4-[(dihydrogenphosphonoxy)methyl]-3-oxo-2H-pyrido[3,2-b][1,4]oxazin-6-yl)-5-fluoro-N2-(4-morpholinophenyl)-2,4-pyrimidinediamine] | 1000 to 100000
